Experimental data taken from publication PMC8878324, “Evaluation of New Antimicrobial Agents Based on tris(1H-Indol-3-yl)methylium Salts: Activity, Toxicity, Suppression of Experimental Sepsis in Mice” (Pharmaceuticals, 2022).

How the values were obtained:
Assay type in all cases: in vivo
S. aureus 10 = test: Model of staphylococcal sepsis in mice; conditions: for ED50: Staphylococcus aureus, 10, iv, 1 h; for Death (%) / Survival Rate (%): 14 days
Description: To determine the ability of drugs to suppress staphylococcal sepsis, a clinical isolate of S. aureus 10, lacking drug resistance and adapted for use in animals, was used. Animals, divided into several experimental groups, were intravenously infected with a lethal dose of S. aureus (0.1 mL each) (Groups 1–5). […] Along with the testing of compounds of the trisndolylmethylium class, a similar experiment was carried out with levofloxacin, taken as a reference drug for a separate group of animals (Group 4). The control group of animals received an intravenous injection of 5% glucose solution instead of the tested preparations (Group 5). Another control group, which also received a single injection of 5% glucose solution, consisted of animals that were not exposed to infection (Group 6). To study each drug, 110–150 animals were required, which were divided into small subgroups of 10 mice each to test various doses of the compounds studied. The number of dead animals and the time of their death were recorded daily, and the appearance of the animals and their weight were assessed. The duration of the experiment was 14 days.
(§1) The study was conducted on adult female SHK mice (18–20 g) obtained from the animal breeding unit of the FMBA (Scientific Center for Biomedical Technologies of the Federal Biomedical Agency, Moscow, Russia). The animals were randomly divided into groups (n = 6 for the study of acute toxicity, n = 10 (or 8) to study the efficacy of suppressing staphylococcal sepsis). The study of the effectiveness of drugs in the treatment of staphylococcal sepsis required the use of 110–175 mice for each drug, 10 animals per group. The animal study was approved by the Ethics of Animal Experimentation of Gause Institute of New Antibiotics (protocol No 13/2019).
The experiment used a strain of S. aureus 10, having no drug resistance and adapted for use in animals. Initially, the 100% lethal dose (LD100) was determined for this pathogen strain in SHK mice, i.e., the dose of the pathogen at which the death of 100% of the animals was recorded. LD100 dose of staphylococcus detected in the experiment was 8.0 × 10^8 CFU/mouse, which was then used for infecting animals.
The chemotherapeutic efficacy of tris(indolyl)methane derivatives was determined in a model of staphylococcal sepsis in mice. Mice of the SHK colony, weighing 18–20 g, were infected intravenously (into the tail vein) with a lethal dose of staphylococcus (0.1 mL of solution). One hour after infection, mice were injected intravenously (0.2 mL of solution each) with the tested tris(indolyl)methane derivatives in the range of doses from 0.1 to 40 mg/kg. For tested drugs, we used solutions prepared in 5% glucose solution. The study of the effectiveness of each drug was conducted on 115–155 mice (10 mice per group). The duration of the experiment was 14 days. The number of dead animals and the time of their death were recorded daily, and the body weight of the animals was recorded three times a week. Their feed intake was monitored, and clinical signs of animal health were assessed daily.
To determine the effectiveness of the tested drugs, 50% effective doses (ED50) were used, which was determined by the Behrens method (frequency accumulation method), as well as by the Litchfield and Wilcoxon method using the StatPlus 2006 software. For all data, the mean and standard deviation were calculated. The differences were defined as significant at p ≤ 0.05.

[1] = Acute toxicity study, intravenous; conditions: female, SHK, mouse, in vivo, mice, single intravenous
Description: (§2) In toxicological experiments with each compound, 72 to 108 animals were used and divided into 8 or 9 experimental groups (6 to 12 mice each), in which the animals received various doses of the tested compounds. There was also a control group of animals, which was injected with the corresponding solvent instead of the experimental compound, and a control group of intact animals. The prepared substances were injected into the animals intravenously (into the tail vein); the dose range was from 1.0 to 100 mg/kg.
as §1
(§3) To prepare solutions of preparations suitable for intravenous administration, dried test compounds with a purity of at least 99% were dissolved in a 5% glucose solution for intravenous administration at a concentration of 3.2 or 6.4 mg/mL. The solutions were sterilized by filtration through Sterivex 0.22 μm filters (Millipore, Burlington, MA, USA). Sterile solutions of drugs with a reduced concentration were then prepared, which allowed for the introduction ofvarious doses of drugs with the same volume (0.2 mL) of solutions. The test preparations were stored at a temperature no higher than 25 °C.
(§4) The study of acute toxicity of each drug was conducted on 72 mice (6 mice per group) using a solution of the test drug prepared in 5% glucose solution. The drug was injected into the tail vein of the animals (0.2 mL) using a syringe with a metal needle in a dose range of 1.0 mg/kg to 70 mg/kg.
(§5) From the first day after administration, the animals were under continuous observation. The number of dead animals and the time of their death were recorded daily. The body weight of the animals and their food consumption was recorded once a week, and the clinical signs of the animals’ health were assessed daily. The duration of observation of the animals was at least 30 days after the last death of the animal. Doses characterizing the toxicity of drugs were calculated by the Litchfield and Wilcoxon method using the StatPlus 2006 software AnalystSoft StatPlus—statistical analysis program, version 2006 (http://www.analystsoft.com/, accessed 11 January 2022). The mean and standard deviation were calculated for all data. The differences are defined as significant at p ≤ 0.05.

SHK mice = test: Acute toxicity study, intravenous
Description: as §2, §1, §3, §4, §5

[2] = single i.v. 1.0 mg/kg 1 h after infection
[3] = single i.v. 2.0 mg/kg 1 h after infection
[4] = single i.v. 4.0 mg/kg 1 h after infection
[5] = single i.v. 6.0 mg/kg 1 h after infection
[6] = single i.v. 5.0 mg/kg 1 h after infection
[7] = single i.v. 10.0 mg/kg 1 h after infection
[8] = single i.v. 15.0 mg/kg 1 h after infection
[9] = single i.v. 20.0 mg/kg 1 h after infection
[10] = single i.v. 25.0 mg/kg 1 h after infection
[11] = single i.v. 30.0 mg/kg 1 h after infection
[12] = single i.v. 35.0 mg/kg 1 h after infection

C[C@H]1COc2c(N3CCN(C)CC3)c(F)cc3c(=O)c(C(=O)O)cn1c23 [Levofloxacin, levofloxacin, reference compound]
ED50 (S. aureus 10): 3.5 mg/kg
Death (%) (S. aureus 10; [2]): 90%
Survival Rate (%) (S. aureus 10; [2]): 10%
Death (%) (S. aureus 10; [3]): 60%
Survival Rate (%) (S. aureus 10; [3]): 40%
Death (%) (S. aureus 10; [4]): 40%
Survival Rate (%) (S. aureus 10; [4]): 60%
Death (%) (S. aureus 10; [5]): 30%
Survival Rate (%) (S. aureus 10; [5]): 70%
dose that saved the lives of 50% of infected animals (S. aureus 10; single injection): about 4 mg/kg

CCCn1cc([C+](c2cn(CCC)c3ccccc23)c2cn(C3=C(N)C(=O)NC3=O)c3ccccc23)c2ccccc21.[Cl-] [Compound 2, (1-(4-Amino-2,5-dioxo-2,5-dihydro-1H-pyrrol-3-yl)-1H-indol-3-yl)bis(1-propyl-1H-indol-3-yl) methylium chloride]
LD50 [1]: 41.8 mg/kg
MTD ([1]; read-out: MTD (LD10)): 34.1 mg/kg
lethal dose causing the death of more than 50% of the animals (SHK mice; intravenous): 35 to 50 mg/kg
time of death of animals after administration (SHK mice; intravenous, in words): in the first two hours after administration
LD16 (SHK mice; single intravenous): 35.8 mg/kg
LD84 (SHK mice; single intravenous): 47.7 mg/kg
LD100 (SHK mice; single intravenous): 50.7 mg/kg
ED50 (S. aureus 10): 18.3 mg/kg
Death (%) (S. aureus 10; [6]): 80%
Survival Rate (%) (S. aureus 10; [6]): 20%
Death (%) (S. aureus 10; [7]): 70%
Survival Rate (%) (S. aureus 10; [7]): 30%
Death (%) (S. aureus 10; [8]): 60%
Survival Rate (%) (S. aureus 10; [8]): 40%
Death (%) (S. aureus 10; [9]): 40%
Survival Rate (%) (S. aureus 10; [9]): 60%
Death (%) (S. aureus 10; [10]): 40%
Survival Rate (%) (S. aureus 10; [10]): 60%
Death (%) (S. aureus 10; [11]): 20%
Survival Rate (%) (S. aureus 10; [11]): 80%
Death (%) (S. aureus 10; [12]): 30%
Survival Rate (%) (S. aureus 10; [12]): 70%
